Test results as given in patent publication US9238036B2, “Pharmaceutical uses of lanosta-8,24-dien-3-ols” (priority 2008, dated 2016).

Columns and labels:
Assay type in all cases: in vivo
[1] = system: mice ears; assay: Ear thickness after topical TPA (irritating effect / inflammation), mice ears; settings: euphol 100 μg/ear with TPA 2.5 μg/ear, acetone:ethanol 3:1, FIG. 1
Procedure: (§1) In all examples that follow, 20-30 g male mice were kept in filtered-air ventilated cages, with controlled temperature (22±2° C.) and humidity (50-60%), 12 h light/12 h dark cycles, with free access to water and food. The animals remained in the lab for an adaptation period of at least 1 hour before the pharmacological tests, held between 8:00 and 17:00 h.
A characterization of the irritating effect of certain chemical compounds was effected, by comparing the results of treating mice ears topically with: • a positive control, namely TPA (tetradecanoylphorbol-13-acetate), 2.5 μg/ear, in a vehicle comprising a 3:1 mixture of acetone:ethanol. • a negative control, namely the vehicle, which is a 3:1 mixture of acetone:ethanol; • Euphol, 100 μg/ear, a compound of the invention, in a vehicle comprising a 3:1 mixture of acetone:ethanol; • A mixture of 100 μg of euphol and 2.5 μg TPA, per ear, in a vehicle comprising a 3:1 mixture of acetone:ethanol.
5-member groups of mice were topically applied, in the inner surface of the ears, the compositions above. The thickness of the ears, before and after exposure to the tested compositions, was measured using a digital micrometer, and the responses were expressed as mμ.

[2] = system: mice; assay: Neuropathic pain induced by partial constriction of the sciatic nerve, Von Frey filament; settings: FIGS. 5A; for mechanical nociceptive response induced by partial constriction of the sciatic nerve, acute treatment: euphol 30 mg/kg or gabapentin 70 mg/kg oral on 4th post-operatory day, 5B; for mechanical hypernociception induced by partial constriction of the sciatic nerve, prolonged treatment: once a day for 5 days from the 6th day, 5C
Procedure: as §1
(§2) The animals' nociceptive mechanical threshold was evaluated as the response frequency of paw withdrawal after ten applications of a Von Frey filament (VHF, Stoelting, Chicago, USA). The animals were individually placed in 9×7×11 cm transparent acrylic compartments over an elevated wire mesh platform, to allow access to the paw plantar surfaces. The Von Frey filament was applied to the right hind paw, watching the criteria of (1) application perpendicular to the plantar surface with enough pressure to bend the filament, so as to ensure total pressure; (2) the animals were evaluated when all four paws were accommodated on the wire mesh; (3) a paw withdrawal response was considered when the animal removed the paw entirely from the wire mesh; (4) each animal was stimulated 10 consecutive times, with 1 second duration each stimulation; (5) each paw withdrawal was considered as 10% of a response, with 10 withdrawals corresponding to 100% response.
The procedure here employed was similar to the one described for rats (Pain, 43:205-218, 1990), modified for mice ((Pain, 76:215-222, 1998), and standardized by Bortolanza et al (Eur J Pharmacol., 453:203-208, 2002). The mice were anesthetized with 7% chloral hydrate (0.6% ml/kg […]). Then the sciatic nerve was exposed on top of the thigh about the sciatic trifurcation, and ⅓-½ of the dorsal portion was tied with a suture filament no. 8. In the false-operated group, the sciatic nerve was exposed without the tying. On the 4th post-operatory day, a group of animals was treated orally with 30 mg/kg euphol, and another group treated orally with 70 mg/kg gabapentin, as a positive control. In predetermined times after the treatment (1, 2, 4, 6, 8, 24 and 48 hours) the mechanical threshold was evaluated, through stimulation with a 0.6 Von Frey filament. To assess the effect of the prolonged treatment, the animals were daily administered euphol, from the 6th day, for 5 days and the mechanical hypernociception was evaluated once a day, 4 h after the first administration, until the return of the nociceptive response similar to the control group. After that, the prolonged treatment protocol was repeated to evaluate a possible development of tolerance to the compound.

[3] = system: mice; assay: Persistent inflammatory nociception induced by CFA, Von Frey filament; settings: FIGS. 4A; for mechanical hypernociception induced by CFA, acute treatment: euphol 30 mg/kg or gabapentin 70 mg/kg oral, 1 h before CFA, 0.6 g Von Frey, 4B
Procedure: as §1
as §2, with “response. […]” for “response.”
Animals were treated orally with 30 mg/kg euphol or 70 mg/kg gabapentin (positive control), 1 hour before the CFA injection. The mechanical hypernociception was measured through stimulation with a 0.6 g Von Frey filament in time intervals of 1, 2, 4, 6, 8, 24 and 48 hours after CFA injection, and up to the re-establishment of the nociceptive response. […] For that, animals received daily 30 mg/kg euphol, orally, for 5 days, and hypernociception was evaluated once a day, 4 hours after the first administration. Mechanical hypernociception was evaluated until the return of the painful response. […]

[4] = system: PKC; assay: PKC activity on the skin of mice, ELISA; settings: topical, FIG. 2
Procedure: as §1
This was an evaluation of the effect of the compounds of the invention upon the PKC activity, on the skin of mice. The animals received the following 100 μg/ear compositions: • a positive control, namely TPA (tetradecanoylphorbol-13-acetate), 2.5 μg/ear, in a vehicle comprising a 3:1 mixture of acetone:ethanol. • a negative control, namely the vehicle, which is a 3:1 mixture of acetone:ethanol; • A mixture of 100 μg euphol and 2.5 μg TPA, per ear, in a vehicle comprising a 3:1 mixture of acetone:ethanol.
5-member groups of mice were topically applied, in the inner surface of the ears, the compositions above. The PKC activity, before and after exposure to the tested compositions, was measured using ELISA (enzyme-linked immuno sorbent assay).

[5] = system: mice; assay: Inflammatory nociception induced by carragenan, Von Frey filament; settings: acute; euphol 30 μg/kg oral 1 h before, dexamethasone 0.5 mg/kg s.c. 4 h before carragenan 300 μg/paw; 0.6 g Von Frey; FIGS. 3A, 3B
Procedure: as §1
as §2, with “The animals were individually placed in 9×7×11 cm transparent acrylic compartments over an elevated wire mesh platform, to allow access to the paw plantar surfaces.” left out, “response. […]” for “response.”
The animals were treated orally with euphol (30 μg/kg) one hour before the carragenan injection. […] Hypernociception was evaluated hourly during 8 hours with a 0.6 g Von Frey filament, as well as after 24 and 48 hours after carragenan injection.

Structure (SMILES)	inhibitory effect on ear thickness increase (inflammation) [1]	mechanical nociceptive response induced by partial constriction of the sciatic nerve, acute treatment [2]	mechanical hypernociception induced by partial constriction of the sciatic nerve, prolonged treatment [2]	mechanical hypernociception induced by CFA, acute treatment [3]	nociceptive response caused by CFA, prolonged treatment ([3]; once a day for 5 days, euphol 30 mg/kg oral, 4C)	PKC activity increase induced by TPA (ELISA absorbance) ([4]; 100 μg euphol + 2.5 μg TPA per ear)	inflammatory mechanical hypernociception induced by carragenan (frequency of response, AUC) [5]	PKC activity (ELISA absorbance) vs vehicle group ([4]; TPA 2.5 μg/ear)
CC(C)=CCC[C@@H](C)[C@@H]1CC[C@]2(C)C3=C(CC[C@@]12C)[C@@]1(C)CC[C@H](O)C(C)(C)[C@@H]1CC3 [euphol]	significant even up to 24 hours after the treatment	inhibited in a significant manner	reduced in a significant manner	reduced significantly	inhibition of the nociceptive response caused by CFA during the 6 following days of treatment	significantly reduces the increase in PKC activity induced by TPA	significantly reduced	–
NCC1(CC(=O)O)CCCCC1 [gabapentin, reference compound]	–	inhibited in a significant manner	reduced in a significant manner	close to the effect obtained with gabapentin	–	–	–	–
CCCCCCCCCCCCCC(=O)O[C@@H]1[C@@H](C)[C@@]2(O)[C@@H](C=C(CO)C[C@]3(O)C(=O)C(C)=C[C@@H]23)[C@@H]2C(C)(C)[C@]12OC(C)=O [TPA, tetradecanoylphorbol-13-acetate, reference compound]	–	–	–	–	–	–	–	significant increase in the PKC activity
